In data set [1] the target is T1, Rap guanine nucleotide exchange factor 3 (Homo sapiens, UniProt O95398).
T1 sequence (O95398 whole entry): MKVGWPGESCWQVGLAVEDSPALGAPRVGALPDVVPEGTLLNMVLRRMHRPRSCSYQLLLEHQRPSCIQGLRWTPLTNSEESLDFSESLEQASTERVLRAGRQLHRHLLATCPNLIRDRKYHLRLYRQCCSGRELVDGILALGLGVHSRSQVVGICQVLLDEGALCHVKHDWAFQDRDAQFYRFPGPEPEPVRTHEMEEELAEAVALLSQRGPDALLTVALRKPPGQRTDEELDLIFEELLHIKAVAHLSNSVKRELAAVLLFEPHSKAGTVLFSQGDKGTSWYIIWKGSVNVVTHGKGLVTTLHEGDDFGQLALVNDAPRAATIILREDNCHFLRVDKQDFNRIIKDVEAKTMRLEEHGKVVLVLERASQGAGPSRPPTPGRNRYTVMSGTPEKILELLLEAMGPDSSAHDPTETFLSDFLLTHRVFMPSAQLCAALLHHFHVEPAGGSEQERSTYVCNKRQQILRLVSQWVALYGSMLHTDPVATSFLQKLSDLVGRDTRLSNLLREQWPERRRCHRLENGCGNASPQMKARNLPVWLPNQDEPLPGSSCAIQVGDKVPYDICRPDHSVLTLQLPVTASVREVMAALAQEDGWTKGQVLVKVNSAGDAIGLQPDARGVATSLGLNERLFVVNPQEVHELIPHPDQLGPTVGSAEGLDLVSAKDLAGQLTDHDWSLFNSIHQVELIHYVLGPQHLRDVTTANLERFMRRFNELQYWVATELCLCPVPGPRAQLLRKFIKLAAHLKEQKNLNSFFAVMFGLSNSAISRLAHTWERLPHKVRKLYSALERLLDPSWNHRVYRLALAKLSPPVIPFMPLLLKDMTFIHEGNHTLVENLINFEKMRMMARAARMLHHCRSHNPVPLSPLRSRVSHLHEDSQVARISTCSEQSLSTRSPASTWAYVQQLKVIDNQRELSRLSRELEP
In words: Binding affinity to GST-tagged recombinant EPAC1 CNBD (169 to 318 residues) (unknown origin) expressed in Escherichia coli BL21 Star (DE3) incubated for 4 hrs by 8-NBD-cAMP competition binding assay.

Data set [2] has as its target T2, Rap guanine nucleotide exchange factor 3 (Homo sapiens) (UniProt O95398).
T2 sequence (whole entry): T1 sequence (O95398 whole entry)
The experiment in a line: Activation of recombinant EPAC1 (149 to 881 residues) (unknown origin) assessed as stimulation of dissociation of fluorescent MANT-GDP from recombinant Rap1b at 10 uM in presence of excess nonfluorescent nucleotides by fluorescence based in-vitro GEF assay relative to cAMP.

Data set [3] concerns the target T2, Rap guanine nucleotide exchange factor 3 (Homo sapiens). In words: Activation of EPAC1 in HUVEC assessed as reduction in IL-6-promoted signaling by measuring pERK protein levels at 100 uM pre-incubated for 30 mins before IL6 and sIL6Ralpha stimulation for 5 hrs by Western blotting analysis. Format: cell-based. A general note: Immunoblotting shows a protein as a band on a membrane.

For data set [4] the target is unchanged. The experiment in a line: Activation of EPAC1 in HUVEC assessed as reduction in IL-6-promoted signaling by measuring VCAM1 protein expression at 100 uM pre-incubated for 30 mins before IL6 and sIL6Ralpha stimulation for 5 hrs by Western blotting analysis. Format: cell-based.
Data set [5] has the same target. In words: Activation of EPAC1 in HUVEC assessed as reduction in IL-6-promoted signaling by measuring pSTAT3 protein levels at 100 uM pre-incubated for 30 mins before IL6 and sIL6Ralpha stimulation for 5 hrs by Western blotting analysis. Type of data set: cell-based.
Data set [6] shares this target. In words: Activation of EPAC1 (unknown origin) expressed in U2OS cells at 100 uM incubated for 10 mins using GST-RalGDS-RBD by Western blot analysis based active GTP-bound Rap1 pull down assay. Format: cell-based.
Data set [7] has the same target. The experiment in a line: Activation of EPAC1 in HUVEC assessed as reduction in IL-6-promoted signaling by measuring ICAM1 protein expression at 100 uM pre-incubated for 30 mins before IL6 and sIL6Ralpha stimulation for 5 hrs by Western blotting analysis. Format: cell-based.
The target is the same in data set [8]. In words: Binding affinity to GST-tagged recombinant EPAC1 CNBD (169 to 318 residues) (unknown origin) expressed in Escherichia coli BL21 Star (DE3) assessed as relative fluorescence intensity incubated for 4 hrs by 8-NBD-cAMP competition binding assay relative to control. Also noted: concentration or dose not given beside the values.
Data set [9] shares this target. The experiment in a line: Activation of EPAC1 in HUVEC assessed as reduction in IL-6-promoted signaling by measuring SELE protein expression at 100 uM pre-incubated for 30 mins before IL6 and sIL6Ralpha stimulation for 5 hrs by Western blotting analysis. Format: cell-based.
Data set [10] can be described thus: Activation of PKA in human U2OS cells stably transfected with EPAC1 assessed as increase in VASP phosphorylation at 100 uM by Western blot analysis. Type of data set: cell-based.
In data set [11] the target is T2, Rap guanine nucleotide exchange factor 3 (Homo sapiens). The experiment in a line: Activity at EPAC1 in HUVEC assessed as promotion of IL-6-promoted signaling by measuring increased pAKT protein levels at 100 uM pre-incubated for 30 mins before IL6 and sIL6Ralpha stimulation for 5 hrs by Western blotting analysis. Type of data set: cell-based.
Data set [12] can be described thus: Binding affinity to GST-tagged recombinant EPAC1 delta-DEP mutant (149 to 881 residues) (unknown origin) expressed in Escherichia coli BL21 Star (DE3) incubated for 4 hrs by 8-NBD-cAMP competition binding assay. More on the design: species or system Homo sapiens.
The target of data set [13] is T1, Rap guanine nucleotide exchange factor 3. The experiment in a line: Activation of recombinant EPAC1 (149 to 881 residues) (unknown origin) assessed as stimulation of dissociation of fluorescent MANT-GDP from recombinant Rap1b in presence of excess nonfluorescent nucleotides by fluorescence based in-vitro GEF assay.
Data set [14] addresses T2, Rap guanine nucleotide exchange factor 3 (Homo sapiens). In words: Activation of EPAC1 (unknown origin) expressed in U2OS cells at 100 uM pre-incubated for 10 mins before 8-pCPT-2'-O-Me-cAMP stimulation for 10 mins using GST-RalGDS-RBD by Western blot analysis based active GTP-bound Rap1 pull down assay. Format: cell-based.
For data set [15] the target is unchanged. The experiment in a line: Activation of EPAC1 in HUVEC assessed as reduction in IL-6-promoted signaling by measuring pAKT protein levels at 100 uM pre-incubated for 30 mins before IL6 and sIL6Ralpha stimulation for 5 hrs by Western blotting analysis. Type of data set: cell-based.
Data set [16] shares this target. In words: Activation of recombinant EPAC1 (149 to 881 residues) (unknown origin) assessed as stimulation of dissociation of fluorescent MANT-GDP from recombinant Rap1b at 500 uM in presence of excess nonfluorescent nucleotides by fluorescence based in-vitro GEF assay relative to cAMP.
Data set [17] has the same target. The experiment in a line: Activity at recombinant EPAC1 (149 to 881 residues) (unknown origin) assessed as reduction in cAMP-induced stimulation of dissociation of fluorescent MANT-GDP from recombinant Rap1b at 500 uM in presence of excess nonfluorescent nucleotides by fluorescence based in-vitro GEF assay.
Data set [18] shares this target. The experiment in a line: Activation of recombinant EPAC1 (149 to 881 residues) (unknown origin) assessed as stimulation of dissociation of fluorescent MANT-GDP from recombinant Rap1b up to 100 uM in presence of excess nonfluorescent nucleotides by fluorescence based in-vitro GEF assay relative to cAMP.

pEC50, pIC50: −log10 of the molar value. Active and inactive are the calls of the source. The rule behind the calls is not given here.

Data on five compounds can be found in ChEMBL document CHEMBL4342525, “Synthesis and Biochemical Evaluation of Noncyclic Nucleotide Exchange Proteins Directly Activated by cAMP 1 (EPAC1) Regulators” (J Med Chem, 2020).

In the case of `Cc1cc(Nc2ncccc2C(F)(F)F)cc(S(=O)(=O)NC(=O)COc2ccc3ccccc3c2)c1`, in [1], the pIC50 was 5.34. Further, the result in data set [2], in data set [4], in data set [5], in data set [6] and in [11] was Active. Moreover, the result in data set [3], in data set [7] and in data set [9] was inactive. Moreover, the Activity in data set [8] is 56%; in [10], “Not Active”.

Consider `Cc1ccc(S(=O)(=O)NC(=O)COc2ccc3ccccc3c2)c(C)c1`, for which the figures for the negative logarithm of the IC50 (pIC50) in data set [1] and in data set [12] were 4.92 to 5.04 and 5.17, respectively. Further, the outcome in data set [3] was inactive. The outcome in data set [4], in [5], in [6] and in data set [11] was Active. Also, the Activity in data set [8] was 61%.

Take `COc1ccc2ccc(OCC(=O)NS(=O)(=O)c3ccc(N)cc3OC)cc2c1`: the result in data set [2], in data set [14], in data set [6] and in [17] was Active. The outcome in data set [3], in [4], in data set [5], in [15], in data set [7] and in [9] was inactive. Moreover, the negative logarithm of the EC50 (pEC50) in [13] was 5.30. In addition, the Activity in data set [8] was 7%; in data set [10], “Not Active”; in data set [16] it was 2%. Besides, the pIC50 in data set [12] is 6.22.

With `COc1ccc(S(=O)(=O)NC(=O)COc2ccc3ccccc3c2)c(OC)c1`, the result in data set [2], in data set [14], in data set [6] and in data set [17] was Active. The pEC50 in data set [13] was 5.30. Besides, the Activity in data set [8] was 23%; in [10] it was “Not Active”; in [16], 2%. In data set [12], the pIC50 was 5.31.

For `COc1ccc2ccc(OCC(=O)NS(=O)(=O)c3ccc4ccccc4c3)cc2c1`, the outcome in data set [2], in data set [14] and in data set [18] was Active. In addition, the pEC50 in data set [13] was 5.30. Also, the Activity in data set [8] was 14%; in [10], “Not Active”. The negative logarithm of the IC50 (pIC50) in [12] is 6.30.

As a reminder, the pIC50 is the negative decadic logarithm of the IC50, by convention in mol/L. In general, pEC50 refers to the EC50 on a negative log10 scale, so that one unit is a factor of ten.
